In patent US20230138393A1, “LINKING AMINO ACID SEQUENCES, MANUFACTURING METHOD THEREOF, AND USE THEREOF” (priority 2020, published 2023):
Entries after “also recorded” stand apart in the source; their conditions may differ. [ ]: non-standard residue; d: D form. The star is where a group is joined. FITC = O=C1OC2(c3ccc(O)cc3Oc3cc(O)ccc32)c2ccc(NC(=S)*)cc21; Dap = NC[C@H](N)C(=O)O

Legend:
in vitro = settings: human, pH 8.5
[1] = Measurement of FTDR reaction kinetics; assay type: physicochemical; settings: DMF/Tris buffer (70/30), pH 8.5, 37° C.; 40, 80, 160 mM; average of three experiments
Method: Measurement of Reaction Kinetics: Reaction kinetics were evaluated similarly to reported procedures (Addy P S et al., 2017, J. Am. Chem. Soc., 139:11670-11673; Sundhoro M et al., 2017, Angew. Chem. Int. Ed. Engl., 56:12117-12121.). Stock solutions of substrate (3) and nucleophiles were prepared in DMF, while TCEP stock (pH 7.4) was dissolved in H2O. Equal concentrations (40 mM, 80 mM, or 160 mM) of the substrate and the nucleophile (3,4,5-trimethoxybenzenethiol or 2,4,6-trimethoxybenzenethiol) were mixed in 40 μL of DMF/Tris buffer (70/30). Over excess amount of TCEP (100 mM, 200 mM, or 400 mM) was added, and the final pH of the mixture was adjusted to 8.5 to initiate the reaction at 37° C. Time dependent measurements were carried out by taking 2 μL of the reaction mixture at indicated time points (30 min, 60 min, 90 min, 120 min, 150 min, 180 min), and mixing it with 18 μL 0.5% TFA/ACN to quench the reaction. The samples were eventually analyzed by LC/MS and the concentrations of product and reactant were determined by comparing peak area ratios with those of the standard curves. […]; t: reaction time; [X]t: concentration of either reactant at time t).

[2] = Bioorthogonality of the fluorine-thiol displacement reaction: incubation with glutathione or cysteine (1H NMR); assay type: physicochemical; settings: 25 mM each, pH 8.5, 37° C., 24 h
Method: Bioorthogonality of the Fluorine-Thiol Displacement Reaction (FIG. 30) The common substrate 2-fluoro-N-phenethylacetamide (compound (3)) was dissolved in MeOD as a 10× stock solution (250 mM). Sixty microliter of the stock was mixed with another 60 μL of either the reduced glutathione or cysteine 10× stock solution (250 mM in D2O). The mixture was added with additional deuterated solvents (1:1 mix of deuterated sodium phosphate buffer and MeOD) to make a final volume of 600 μL (pH adjusted to 8.5). The resulting solution was incubated at 37° C. water bath for 24 h, and then analyzed by ^1H NMR spectroscopy.

[3] = Stability and reactivity of model substrates and probes in cell lysates; settings: human, pH 8.5
TIP60 = TIP60 (Homo sapiens, UniProt Q92993); test: Acetyltransferase assay with acetyl-CoA analogs and H4 (1-20) peptide (MS); settings: TIP60 with H4 (1-20) peptide, mass spectrometric analysis
MYST2 = MYST2 (Homo sapiens, UniProt O95251); test: as above; settings: MYST2 with H4 (1-20) peptide, mass spectrometric analysis
GCN5 = GCN5 (Homo sapiens, UniProt Q92831); test: Acetyltransferase assay with acetyl-CoA analogs and H3 (1-20) peptide (MS); settings: GCN5 with H3 (1-20) peptide, mass spectrometric analysis
[4] = Hydrolysis of acetyl CoA and fluoroacetyl CoA (DTNB); assay type: physicochemical; settings: 10 μM, 100 mM Tris buffer (pH 7.2)
Method: Hydrolysis of Acetyl CoA and Fluoroacetyl CoA: The hydrolysis rate of acetyl-CoA and fluoroacetyl CoA were measured in a similar manner to reported procedures (Weeks A M et al., 2010, Biochemistry, 49:9269-9279; Wagner G R et al., 2017, Cell Metab., 25:823-837). Briefly, 10 μM of the acetyl or fluoroacetyl CoA was incubated in 100 mM Tris buffer mixed with 0.5 mM DTNB, pH 7.2. The increase in the solution's absorbance at 412 nm was recorded, as a result of the reaction between DTNB and the free thiol in the released CoA hydrolysis product. A CoA standard curve was generated by measuring the absorbance of serially diluted CoA stock (200 μM) in the same assay buffer.

DLD-1 cells [5] = test: Cell penetration assay of FITC-labelled Axin analogues (confocal imaging); assay type: cell-based; settings: for cellular uptake by confocal fluorescence microscopy (in words): 10 μM; for Mean Intensity Ratio (cell penetration): 10 μM FITC-labelled peptide, 12 h, intracellular intensity of peptide 51 normalized as 1
Method: Cell Penetration Assay: DLD-1 cells were seeded on 35 mm optical dishes at 3e5 per well and were incubated overnight at 37° C./5% CO2. […] Cells were imaged in buffer mimicking the physiological conditions in the cytoplasm (20 mM HEPES, 110 mM KOAc, 5 mM NaOAc, 2 mM MgOAc, 1 mM EGTA, pH 7.3).

DLD-1 cells [6] = settings: 10 μM, 12 h
Method: Cell Viability Assay: Wild type DLD-1 cells were cultured in complete growth media (RPMI, 10% FBS and 1% penicillin/streptomycin) at 37° C./5% CO2. After harvesting, cells were placed onto 96-well flat bottom white plates at 10e4 cells/well, and were incubated overnight. […] The chemiluminescent signals from the control sample (treated with 0 μM peptides) were used as the 100% control. […] For DLD-1 cells, after confocal imaging for the penetration pathway studies, viability measurements were carried out similarly via directly mixing with the CellTiter-Glo reagent. Cells treated with vehicle groups were also analyzed and counted as the 100% control.

DLD-1 cells [7] = settings: then 10 μM peptide 4 h; for Mean Intensity Ratio, no pathway blocker: DLD-1 cells pretreated with solvent vehicle only, normalized as 1; for Mean Intensity Ratio, Chlorpromazine / Mean Intensity Ratio, Cytochalasin D / Mean Intensity Ratio, Nystatin / Mean Intensity Ratio, NaClO3: DLD-1 cells, ratio to no blocker; for Mean Intensity Ratio, Chlorpromazine: 1 h 5 μg/mL chlorpromazine (clathrin-dependent endocytosis); for Mean Intensity Ratio, Cytochalasin D: 1 h 10 μg/mL cytochalasin D (actin polymerization); for Mean Intensity Ratio, Nystatin: 1 h 25 μg/mL nystatin (caveolin-mediated endocytosis); for Mean Intensity Ratio, NaClO3: 1 h 80 mM NaClO3 (proteoglycan synthesis)
Method: Images were analyzed with NIH ImageJ software. […] Particles in the extracellular matrix that the “analyze particle” function selected were manually deselected and removed from the data set (FIG. 58B).
After this, the FITC-labelled peptide analogues were added at a final concentration of 10 μM, and the mixture was incubated at 37° C./5% CO2 for 4 h. […] After another round of washing, cells were imaged in the buffer as aforementioned. Subsequent CellTiter-Glo viability measurements were also performed right after confocal imaging.

[8] = biological target: T1, beta-catenin protein (Abcam, ab63175) (UniProt P35222 1-781, limits assumed); test: ELISA; beta-catenin coated on plate
T1 construct: Bought protein coated on the ELISA plate; also called β-catenin; target protein β-catenin
T1 sequence (looked up): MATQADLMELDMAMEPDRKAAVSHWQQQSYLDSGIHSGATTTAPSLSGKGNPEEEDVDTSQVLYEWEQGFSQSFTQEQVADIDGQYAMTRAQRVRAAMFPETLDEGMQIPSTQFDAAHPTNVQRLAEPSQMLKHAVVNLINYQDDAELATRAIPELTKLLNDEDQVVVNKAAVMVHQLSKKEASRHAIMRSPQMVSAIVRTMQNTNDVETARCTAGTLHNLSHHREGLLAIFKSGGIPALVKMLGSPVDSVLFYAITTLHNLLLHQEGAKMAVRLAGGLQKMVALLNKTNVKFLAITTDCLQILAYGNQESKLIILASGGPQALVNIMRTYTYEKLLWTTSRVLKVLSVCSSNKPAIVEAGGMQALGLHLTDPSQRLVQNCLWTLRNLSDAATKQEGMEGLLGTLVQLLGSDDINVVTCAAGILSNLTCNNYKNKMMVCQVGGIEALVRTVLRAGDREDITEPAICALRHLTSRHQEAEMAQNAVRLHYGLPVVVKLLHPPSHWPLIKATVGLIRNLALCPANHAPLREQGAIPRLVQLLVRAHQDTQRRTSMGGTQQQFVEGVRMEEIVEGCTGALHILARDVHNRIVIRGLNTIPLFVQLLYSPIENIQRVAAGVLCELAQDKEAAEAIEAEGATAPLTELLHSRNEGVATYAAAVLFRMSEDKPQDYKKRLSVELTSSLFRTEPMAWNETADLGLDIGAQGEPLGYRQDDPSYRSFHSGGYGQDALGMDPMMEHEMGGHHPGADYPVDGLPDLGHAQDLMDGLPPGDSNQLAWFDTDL

GCN5, sequence (Q92831 492-658 limits assumed): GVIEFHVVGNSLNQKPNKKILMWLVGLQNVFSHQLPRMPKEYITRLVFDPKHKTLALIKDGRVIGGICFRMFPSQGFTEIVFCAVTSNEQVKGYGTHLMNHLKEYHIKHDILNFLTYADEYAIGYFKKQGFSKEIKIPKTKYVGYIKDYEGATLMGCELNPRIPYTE
TIP60, sequence (Q92993 whole entry): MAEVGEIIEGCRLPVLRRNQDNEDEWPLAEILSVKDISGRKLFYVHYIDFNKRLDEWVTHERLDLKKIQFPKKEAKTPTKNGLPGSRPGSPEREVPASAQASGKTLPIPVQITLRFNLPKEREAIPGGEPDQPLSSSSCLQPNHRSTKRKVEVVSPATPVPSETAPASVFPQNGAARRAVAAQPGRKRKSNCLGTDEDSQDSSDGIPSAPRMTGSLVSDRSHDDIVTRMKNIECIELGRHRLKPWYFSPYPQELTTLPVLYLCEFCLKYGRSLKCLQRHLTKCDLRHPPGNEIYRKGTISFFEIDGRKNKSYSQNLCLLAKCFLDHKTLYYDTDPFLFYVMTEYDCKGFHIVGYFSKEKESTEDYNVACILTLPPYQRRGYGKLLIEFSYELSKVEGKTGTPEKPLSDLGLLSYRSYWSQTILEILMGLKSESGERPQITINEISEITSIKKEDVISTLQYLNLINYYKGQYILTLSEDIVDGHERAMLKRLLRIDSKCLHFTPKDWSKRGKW
MYST2, sequence (O95251 whole entry): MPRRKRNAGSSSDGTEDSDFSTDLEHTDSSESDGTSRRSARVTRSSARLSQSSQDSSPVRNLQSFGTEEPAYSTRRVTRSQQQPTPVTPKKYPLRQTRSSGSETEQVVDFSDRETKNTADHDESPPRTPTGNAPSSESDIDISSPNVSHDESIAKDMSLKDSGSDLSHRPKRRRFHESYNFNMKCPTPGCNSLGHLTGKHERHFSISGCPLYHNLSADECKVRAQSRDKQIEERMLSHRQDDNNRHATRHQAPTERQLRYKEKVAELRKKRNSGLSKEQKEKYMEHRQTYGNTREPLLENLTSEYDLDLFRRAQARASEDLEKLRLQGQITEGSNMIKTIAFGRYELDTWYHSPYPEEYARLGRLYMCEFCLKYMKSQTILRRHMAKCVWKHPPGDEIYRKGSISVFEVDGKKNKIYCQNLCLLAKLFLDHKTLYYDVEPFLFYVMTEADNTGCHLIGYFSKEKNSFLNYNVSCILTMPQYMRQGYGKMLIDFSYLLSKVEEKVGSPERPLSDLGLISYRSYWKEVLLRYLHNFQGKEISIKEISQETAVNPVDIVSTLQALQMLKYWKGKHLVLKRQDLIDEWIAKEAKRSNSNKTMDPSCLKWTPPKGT

COc1cc(OC)c(S)c(OC)c1 [Peptide 13]
recovery at 14 h, 1 mM (in vitro): 61.8%
second order rate constant of FTDR reaction with (3) (2-fluoro-N-phenethylacetamide) [1]: (1.03±0.06)×10^−3 M^−1 S^−1

O=C(CF)NCCc1ccccc1 [Peptide 3]
reactivity with cysteine [2]: no reaction was observed; also recorded: stable
reactivity with glutathione [2]: no reaction was observed; also recorded: stable
recovery at 14 h, 1 mM [3]: 100%

CC(=O)SCCNC(=O)CCNC(=O)[C@H](O)C(C)(C)COP(=O)(O)OP(=O)(O)OC[C@H]1O[C@@H](n2cnc3c(N)ncnc32)[C@H](O)[C@@H]1OP(=O)(O)O [Ac-CoA, acetyl-CoA]
labelling of histone peptide substrate by acetyltransferase (TIP60): successful acetyl or acetyl analog labelling
labelling of histone peptide substrate by acetyltransferase (MYST2): successful acetyl or acetyl analog labelling
labelling of histone peptide substrate by acetyltransferase (GCN5): successful acetyl or acetyl analog labelling
pseudo-first-order rate constant of hydrolysis [4]: 0.0002 s⁻¹

C#CCCC(=O)SCCNC(=O)CCNC(=O)[C@H](O)C(C)(C)COP(=O)(O)OP(=O)(O)OCC1OC(n2cnc3c(N)ncnc32)C(O)C1OP(=O)(O)O (stereo partly shown) [Peptide 4-PY-CoA, 4-pentynoyl CoA]
labelling of histone peptide substrate by acetyltransferase (TIP60): failed to incorporate
labelling of histone peptide substrate by acetyltransferase (MYST2): failed to incorporate
labelling of histone peptide substrate by acetyltransferase (GCN5): failed to incorporate

CC[C@H](C)[C@@H]1NC(=O)[C@@H](NC(=O)[C@H](CCC(N)=O)NC(=O)[C@@H]2CCCN2C(=O)[C@H](Cc2c[nH]c3ccccc23)NC(=O)[C@H](CCCNC(=N)N)NC(=O)COCCOCCNC(=S)Nc2ccc3c(c2)C(=O)OC32c3ccc(O)cc3Oc3cc(O)ccc32)CNC(=O)CSCc2cccc(c2)CSCC(=O)NC[C@H](C(=O)N[C@@H](Cc2c[nH]cn2)C(=O)N[C@H](C(=O)N[C@@H](CCCNC(=N)N)C(=O)N[C@@H](CCCNC(=N)N)C(=O)N[C@H](C(=O)N[C@@H](Cc2c[nH]c3ccccc23)C(=O)N[C@@H](CCCNC(=N)N)C(N)=O)C(C)C)C(C)C)NC(=O)[C@H](CC(=O)O)NC(=O)[C@H](CC(C)C)NC1=O [Peptide 50]
cellular uptake by confocal fluorescence microscopy (in words) (DLD-1 cells [5]): significant cellular uptake
Mean Intensity Ratio (cell penetration) (DLD-1 cells [5]): 5.05±0.14
effect on cell viability (DLD-1 cells [6]): did not affect the viability
Mean Intensity Ratio, no pathway blocker (DLD-1 cells [7]): 1.00 ± 0.02
Mean Intensity Ratio, Chlorpromazine (DLD-1 cells [7]): 0.16 ± 0.01
Mean Intensity Ratio, Cytochalasin D (DLD-1 cells [7]): 0.99 ± 0.02
Mean Intensity Ratio, Nystatin (DLD-1 cells [7]): 0.17 ± 0.01
Mean Intensity Ratio, NaClO3 (DLD-1 cells [7]): 0.20 ± 0.01

CC[C@H](C)[C@@H]1NC(=O)[C@@H](NC(=O)[C@H](CCC(N)=O)NC(=O)[C@@H]2CCCN2C(=O)[C@H](Cc2c[nH]c3ccccc23)NC(=O)[C@H](CCCNC(=N)N)NC(=O)COCCOCCNC(=S)Nc2ccc3c(c2)C(=O)OC32c3ccc(O)cc3Oc3cc(O)ccc32)CNC(=O)CSCc2cccc(c2)CSCC(=O)NC[C@@H](C(=O)N[C@@H](Cc2c[nH]cn2)C(=O)N[C@H](C(=O)N[C@@H](CCCNC(=N)N)C(=O)N[C@@H](CCCNC(=N)N)C(=O)N[C@H](C(=O)N[C@@H](Cc2c[nH]c3ccccc23)C(=O)N[C@@H](CCCNC(=N)N)C(N)=O)C(C)C)C(C)C)NC(=O)[C@H](CC(=O)O)NC(=O)[C@H](CC(C)C)NC1=O [Peptide 48]
cellular uptake by confocal fluorescence microscopy (in words) (DLD-1 cells [5]): significant cellular uptake
Mean Intensity Ratio (cell penetration) (DLD-1 cells [5]): 4.86±0.15
effect on cell viability (DLD-1 cells [6]): did not affect the viability
Mean Intensity Ratio, no pathway blocker (DLD-1 cells [7]): 1.00 ± 0.04
Mean Intensity Ratio, Chlorpromazine (DLD-1 cells [7]): 0.13 ± 0.01
Mean Intensity Ratio, Cytochalasin D (DLD-1 cells [7]): 0.10 ± 0.01
Mean Intensity Ratio, Nystatin (DLD-1 cells [7]): 1.16 ± 0.03
Mean Intensity Ratio, NaClO3 (DLD-1 cells [7]): 0.12 ± 0.01

COc1cc(S)cc(OC)c1OC [Peptide 12]
second order rate constant of FTDR reaction with (3) (2-fluoro-N-phenethylacetamide) [1]: (0.37±0.06)×10^−3 M^−1 S^−1

CC(C)(COP(=O)(O)OP(=O)(O)OCC1OC(n2cnc3c(N)ncnc32)C(O)C1OP(=O)(O)O)[C@@H](O)C(=O)NCCC(=O)NCCSC(=O)CF (stereo partly shown) [F-Ac-CoA, fluoroacetyl-CoA]
labelling of histone peptide substrate by acetyltransferase (TIP60): successful acetyl or acetyl analog labelling
labelling of histone peptide substrate by acetyltransferase (MYST2): successful acetyl or acetyl analog labelling
labelling of histone peptide substrate by acetyltransferase (GCN5): successful acetyl or acetyl analog labelling
pseudo-first-order rate constant of hydrolysis [4]: 0.0075 s⁻¹

B1: FITC labelled fluoroacetamide containing L,L substrate (47), unstapled Axin-derived peptide analogue (peptide)
peptide: {FITC}-RWPQ[Dap](fluoroacetyl)ILD[Dap](fluoroacetyl)HVRRVWR-NH2
notes: also called peptide (47); unstapled peptide (47)
EC50 [8]: ~300 nM
